{"source": "ChEMBL document CHEMBL3091311", "about": "“Removal of human ether-à-go-go related gene (hERG) K+ channel affinity through rigidity: a case of clofilium analogues” (J Med Chem, 2013)", "key": {"[1]": {"target": "T1, Voltage-gated inwardly rectifying potassium channel KCNH2 (Homo sapiens, UniProt Q12809)", "T1 sequence (Q12809 whole entry)": "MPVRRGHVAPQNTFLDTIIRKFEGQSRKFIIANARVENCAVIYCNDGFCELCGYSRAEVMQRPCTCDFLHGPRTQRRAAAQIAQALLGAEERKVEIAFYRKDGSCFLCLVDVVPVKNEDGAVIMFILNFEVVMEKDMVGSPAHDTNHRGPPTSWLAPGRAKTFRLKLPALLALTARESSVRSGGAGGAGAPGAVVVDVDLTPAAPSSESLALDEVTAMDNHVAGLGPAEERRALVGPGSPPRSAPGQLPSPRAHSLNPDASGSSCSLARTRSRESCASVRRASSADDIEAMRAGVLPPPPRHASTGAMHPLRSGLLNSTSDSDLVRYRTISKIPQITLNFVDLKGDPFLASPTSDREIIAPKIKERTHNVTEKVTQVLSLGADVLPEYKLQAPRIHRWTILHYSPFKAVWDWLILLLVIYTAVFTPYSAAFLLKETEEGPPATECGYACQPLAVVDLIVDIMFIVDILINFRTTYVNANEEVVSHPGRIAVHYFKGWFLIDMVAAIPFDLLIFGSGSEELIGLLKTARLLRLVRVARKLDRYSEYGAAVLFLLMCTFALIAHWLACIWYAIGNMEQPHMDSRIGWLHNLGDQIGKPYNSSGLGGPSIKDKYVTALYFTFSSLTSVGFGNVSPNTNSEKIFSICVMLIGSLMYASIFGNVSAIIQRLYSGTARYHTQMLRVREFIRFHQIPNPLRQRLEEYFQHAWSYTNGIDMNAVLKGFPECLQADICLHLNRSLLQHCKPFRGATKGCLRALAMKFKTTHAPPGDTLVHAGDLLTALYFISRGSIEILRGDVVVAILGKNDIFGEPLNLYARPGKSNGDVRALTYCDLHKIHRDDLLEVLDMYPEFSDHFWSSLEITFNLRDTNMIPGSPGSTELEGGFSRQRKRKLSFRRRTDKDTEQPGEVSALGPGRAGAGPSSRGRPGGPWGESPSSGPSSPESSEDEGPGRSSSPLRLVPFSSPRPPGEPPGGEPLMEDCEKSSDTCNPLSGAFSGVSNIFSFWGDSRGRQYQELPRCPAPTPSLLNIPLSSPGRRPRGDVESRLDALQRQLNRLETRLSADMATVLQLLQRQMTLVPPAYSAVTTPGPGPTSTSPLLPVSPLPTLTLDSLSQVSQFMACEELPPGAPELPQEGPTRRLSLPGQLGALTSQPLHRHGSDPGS", "experiment": "Displacement of [3H]astemizole from human ERG channel expressed in HEK293 cell membrane after 1 hr by scintillation counting analysis"}, "hERG (KCNH2) [2]": {"target": "T2, hERG (KCNH2) (Homo sapiens, UniProt Q12809)", "T2 sequence (Q12809 whole entry)": "as above", "experiment": "Ratio of Ki for human ERG channel expressed in HEK293 cell membrane after 1 hr by scintillation counting analysis to IC50 for human ERG channel expressed in HEK293 cells after 15 mins by whole-cell patch clamp technique", "type": "cell membranes"}, "[3]": {"target": "T1, Voltage-gated inwardly rectifying potassium channel KCNH2", "experiment": "Inhibition of human ERG channel expressed in HEK293 cells after 15 mins by whole-cell patch clamp technique", "type": "cell-based"}, "hERG (KCNH2) [4]": {"target": "T2, hERG (KCNH2)", "experiment": "Displacement of [3H]astemizole from human ERG channel expressed in HEK293 cell membrane at 10 uM after 1 hr by scintillation counting analysis", "settings": "membranes of HEK293 cells that express hERG, probe [3H]astemizole"}}, "data": [{"smiles": "CCCCN(CC)C/C=C/c1ccc(Cl)cc1", "values": [{"measurement": "IC50", "setting": "[1]", "value": 1050, "unit": "nM"}]}, {"smiles": "CCCCCCC[N+](CC)(CC)CC#Cc1ccc(Cl)cc1", "values": [{"measurement": "IC50", "setting": "[1]", "value": 40, "unit": "nM"}]}, {"smiles": "CCCCCCCN(CC)CC#CCCc1ccccc1", "values": [{"measurement": "IC50", "setting": "[1]", "value": 4390, "unit": "nM"}]}, {"smiles": "CCCCCCCN(CC)C/C=C/CCc1ccc(Cl)cc1", "values": [{"measurement": "IC50", "setting": "[1]", "value": 238, "unit": "nM"}]}, {"smiles": "CCCCCCCN(CC)CC#CCCc1ccc(Cl)cc1", "values": [{"measurement": "selectivity ratio", "setting": "hERG (KCNH2) [2]", "value": 2}, {"measurement": "IC50", "setting": "[1]", "value": 765, "unit": "nM"}, {"measurement": "Ki", "setting": "[1]", "value": 148, "unit": "nM"}, {"measurement": "IC50", "setting": "[3]", "value": 53, "unit": "nM"}]}, {"smiles": "CCCCN(CC)CC#CC#Cc1ccc(C)cc1", "values": [{"measurement": "inhibition at 1 h, 10 µM", "setting": "hERG (KCNH2) [4]", "value": 47, "unit": "%"}]}, {"smiles": "CCCCN(CC)CC#CCOCc1ccc(Cl)cc1", "values": [{"measurement": "IC50", "setting": "[1]", "value": 7370, "unit": "nM"}]}, {"smiles": "CCCCCCCN(CC)C/C=C/c1ccc(Cl)cc1", "values": [{"measurement": "IC50", "setting": "[1]", "value": 243, "unit": "nM"}]}, {"smiles": "CCCCN(CC)CC#CCCc1ccccc1", "values": [{"measurement": "inhibition at 1 h, 10 µM", "setting": "hERG (KCNH2) [4]", "value": 48, "unit": "%"}]}, {"smiles": "CCCCCCCN(CC)CC#CCOC(c1ccccc1)c1ccccc1", "values": [{"measurement": "IC50", "setting": "[1]", "value": 970, "unit": "nM"}]}, {"smiles": "CCCCN(CC)CC#CCCc1ccc(C)cc1", "values": [{"measurement": "IC50", "setting": "[1]", "value": 5590, "unit": "nM"}]}, {"smiles": "CCCCCCCN1CCC(C(=O)c2ccccc2)CC1", "values": [{"measurement": "IC50", "setting": "[1]", "value": 124, "unit": "nM"}]}, {"smiles": "CCCCCCCN(CC)CC#Cc1ccc(Cl)cc1", "values": [{"measurement": "IC50", "setting": "[1]", "value": 4080, "unit": "nM"}]}]}
